Measured values from patent publication US20050032807A1, “Methods of treating inflammatory diseases with ammonium salts of ornitihine derivatives” (priority 2003, published 2005).

How the values were obtained:
[1] = lyophilization of the dilute ammonium hydroxide solution to the ammonium salt
cell growth in culture = settings: Rosowsky et al., J. Med. Chem. 29, 655-660 (1986); cited from earlier work
[2] = test system: folylpolyglutamate synthetase (FPGS); settings: Rosowsky et al., J. Med. Chem. 29, 655-660 (1986); cited from earlier work
[3] = target: T1, dihydrofolate reductase (DHFR) (Mus musculus, UniProt P00375); settings: Rosowsky et al., J. Med. Chem. 29, 655-660 (1986); cited from earlier work
T1 sequence (P00375 1-187): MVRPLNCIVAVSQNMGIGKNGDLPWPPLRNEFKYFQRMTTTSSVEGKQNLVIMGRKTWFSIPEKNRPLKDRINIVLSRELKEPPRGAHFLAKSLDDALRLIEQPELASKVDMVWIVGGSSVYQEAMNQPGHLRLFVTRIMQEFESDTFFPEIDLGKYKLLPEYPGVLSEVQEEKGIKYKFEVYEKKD

product decomposition [1] | Structure (SMILES) | inhibition of cell growth in culture (cell growth in culture) | inhibition of folylpolyglutamate synthetase (FPGS) [2] | inhibition of dihydrofolate reductase (DHFR) [3]
minimal | N.N.Nc1nc(N)c2nc(CNc3ccc(C(=O)N[C@@H](CCCNC(=O)c4ccccc4C(=O)O)C(=O)O)cc3)cnc2n1 [compound 8, N^α-(4-Amino-4-deoxypteroyl)N^δ-hemiphthaloyl-L-ornithine ammonium salt] |  |  | 
 | NCCC[C@H](NC(=O)c1ccc(NCc2cnc3nc(N)nc(N)c3n2)cc1)C(=O)O [APA-L-Orn, N^α-(4-amino-4-deoxypteroyl)-L-ornithine] | relatively inactive | potent inhibitor | potent inhibitor
